Laboratory results from US8343993B2, “Hydroxyalkyl substituted imidazonaphthyridines” (3M Innovative Properties Company, priority 2005, dated 2013).
Counter-ions that a name gives are not always drawn. Like-named read-outs stand apart in the source and are kept apart here.

Assays:
IFN-α = test: Cytokine induction in human cells (PBMC): IFN-α secreted into culture media, ELISA; assay type: cell-based; conditions: median where several experiments; for minimal effective concentration: 30-0.014 μM, lowest concentration inducing over 20 pg/mL, read-out: Minimum Effective Concentration IFN
From the text: (§1) An in vitro human blood cell system is used to assess cytokine induction. Activity is based on the measurement of interferon (α) and tumor necrosis factor (α) (IFN-α, and TNF-α, respectively) secreted into culture media as described by Testerman et. al. in “Cytokine Induction by the Immunomodulators Imiquimod and S-27609”, Journal of Leukocyte Biology, 58, 365-372 (September, 1995).
(§2) Whole blood from healthy human donors is collected by venipuncture into vacutainer tubes or syringes containing EDTA. Peripheral blood mononuclear cells (PBMC) are separated from whole blood by density gradient centrifugation using HISTOPAQUE-1077 (Sigma, St. Louis, Mo.) or Ficoll-Paque Plus (Amersham Biosciences Piscataway, N.J.). Blood is diluted 1:1 with Dulbecco's Phosphate Buffered Saline (DPBS) or Hank's Balanced Salts Solution (HBSS). Alternately, whole blood is placed in Accuspin (Sigma) or LeucoSep (Greiner Bio-One, Inc., Longwood Fla.) centrifuge frit tubes containing density gradient medium. The PBMC layer is collected and washed twice with DPBS or HBSS and re-suspended at 4×10^6 cells/mL in RPMI complete. The PBMC suspension is added to 96 well flat bottom sterile tissue culture plates containing an equal volume of RPMI complete media containing test compound.
(§3) The compounds are solubilized in dimethyl sulfoxide (DMSO). The DMSO concentration should not exceed a final concentration of 1% for addition to the culture wells. The compounds are generally tested at concentrations ranging from 30-0.014 μM. Controls include cell samples with media only, cell samples with DMSO only (no compound), and cell samples with reference compound.
(§4) The solution of test compound is added at 60 μM to the first well containing RPMI complete and serial 3 fold dilutions are made in the wells. The PBMC suspension is then added to the wells in an equal volume, bringing the test compound concentrations to the desired range (usually 30-0.014 μM). The final concentration of PBMC suspension is 2×10^6 cells/mL. The plates are covered with sterile plastic lids, mixed gently and then incubated for 18 to 24 hours at 37° C. in a 5% carbon dioxide atmosphere.
(§5) Following incubation the plates are centrifuged for 10 minutes at 1000 rpm (approximately 200×g) at 4° C. The cell-free culture supernatant is removed and transferred to sterile polypropylene tubes. Samples are maintained at −30 to −70° C. until analysis. The samples are analyzed for IFN-α by ELISA and for TNF-α by IGEN/BioVeris Assay.
IFN-α concentration is determined with a human multi-subtype colorimetric sandwich ELISA (Catalog Number 41105) from PBL Biomedical Laboratories, Piscataway, N.J. Results are expressed in pg/mL.
Analysis of the data has two steps. First, the greater of the mean DMSO (DMSO control wells) or the experimental background (usually 20 pg/mL for IFN-α and 40 pg/mL for TNF-α) is subtracted from each reading. If any negative values result from background subtraction, the reading is reported as “*” and is noted as not reliably detectable. In subsequent calculations and statistics, “*” is treated as a zero. Second, all, background subtracted values are multiplied by a single adjustment ratio to decrease experiment to experiment variability. The adjustment ratio is the area of the reference compound in the new experiment divided by the expected area of the reference compound based on the past 61 experiments (unadjusted readings). […] The reference compound used is 2-[4-amino-2-ethoxymethyl-6,7,8,9-tetrahydro-α,α-dimethyl-1H-imidazo[4,5-c]quinolin-1-yl]ethanol hydrate (U.S. Pat. No. 5,352,784; Example 91) and the expected area is the sum of the median dose values from the past 61 experiments.
The minimum effective concentration is calculated based on the background-subtracted, reference-adjusted results for a given experiment and compound. […]

TNF-α = test: Cytokine induction in human cells (PBMC): TNF-α secreted into culture media, ORIGEN M-Series immunoassay; assay type: cell-based; conditions: median where several experiments; for minimal effective concentration: 30-0.014 μM, lowest concentration inducing over 40 pg/mL, read-out: Minimum Effective Concentration TNF; for Maximal Response TNF: Table 4, background-subtracted, reference-adjusted, * = below background
From the text: as §1, §2, §3, §4, §5
The TNF-α concentration is determined by ORIGEN M-Series Immunoassay and read on an IGEN M-8 analyzer from BioVeris Corporation, formerly known as IGEN International, Gaithersburg, Md. The immunoassay uses a human TNF-α capture and detection antibody pair (Catalog Numbers AHC3419 and AHC3712) from Biosource International, Camarillo, Calif. Results are expressed in pg/mL.
Analysis of the data has two steps. First, the greater of the mean DMSO (DMSO control wells) or the experimental background (usually 20 pg/mL for IFN-α and 40 pg/mL for TNF-α) is subtracted from each reading. If any negative values result from background subtraction, the reading is reported as “*” and is noted as not reliably detectable. In subsequent calculations and statistics, “*” is treated as a zero. Second, all, background subtracted values are multiplied by a single adjustment ratio to decrease experiment to experiment variability. The adjustment ratio is the area of the reference compound in the new experiment divided by the expected area of the reference compound based on the past 61 experiments (unadjusted readings). […] The reference compound used is 2-[4-amino-2-ethoxymethyl-6,7,8,9-tetrahydro-α,α-dimethyl-1H-imidazo[4,5-c]quinolin-1-yl]ethanol hydrate (U.S. Pat. No. 5,352,784; Example 91) and the expected area is the sum of the median dose values from the past 61 experiments. […]

| Compound | minimal effective concentration (IFN-α; Table 4, 18 to 24 hours) [µM] | minimal effective concentration (TNF-α; Table 4, 18 to 24 hours) [µM] | melting point [°C] | Maximal Response IFN (IFN-α; Table 4, background-subtracted, reference-adjusted) [pg/mL] | Maximal Response TNF (TNF-α) | minimal effective concentration (IFN-α; Table 3, 18 to 24 hours) [µM] | minimal effective concentration (TNF-α; Table 3, 18 to 24 hours) [µM] |
| --- | --- | --- | --- | --- | --- | --- | --- |
| Cc1nc2c(N)nc3cccnc3c2n1CC(C)C [Analog 10, 2-methyl-1-(2-methylpropyl)-1H-imidazo[4,5-c][1,5]naphthyridin-4-amine, reference compound] | 0.37 | 1.11 |  |  |  |  |  |
| CC(C)(F)Cn1c(CCO)nc2c(N)nc3cccnc3c21 [Example 15, 2-[4-Amino-1-(2-fluoro-2-methylpropyl)-1H-imidazo[4,5-c][1,5]naphthyridin-2-yl]ethanol] | 1.11 | 10 | 224 to 225 |  |  |  |  |
| CC(C)Cn1c(CO)nc2c(N)nc3cccnc3c21 [Example 96, [4-Amino-1-(2-methylpropyl)-1H-imidazo[4,5-c][1,5]naphthyridin-2-yl]methanol] | 1.11 | 30 | 226 to 228 |  |  |  |  |
| CC(C)(F)Cn1c(CO)nc2c(N)nc3cccnc3c21 [Example 14, [4-Amino-1-(2-fluoro-2-methylpropyl)-1H-imidazo[4,5-c][1,5]naphthyridin-2-yl]methanol] | 1.11 | 3.33 | 240 to 241 |  |  |  |  |
| CCOCc1nc2c(N)nc3cccnc3c2n1CC(C)C [Analog 9, 2-ethoxymethyl-1-(2-methylpropyl)-1H-imidazo[4,5-c][1,5]naphthyridin-4-amine, reference compound] | 0.12 | 1.11 |  |  |  |  |  |
| CCOCc1nc2c(N)nc3cccnc3c2n1CC(C)(C)NS(C)(=O)=O [Analog 7, N-[2-(4-amino-2-ethoxoxymethyl-1H-imidazo[4,5-c][1,5]naphthyridin-1-yl)-1,1-dimethylethyl]methanesulfonamide, reference compound] | 0.04 | 0.37 |  | 2465 | 9234 pg/mL |  |  |
| CC(C)(O)Cn1c(CCO)nc2c(N)nc3cccnc3c21 [Example 7, 1-[4-Amino-2-(2-hydroxyethyl)-1H-imidazo[4,5-c][1,5]naphthyridin 1-yl]-2-methylpropan-2-ol] | 3.33 | 30 | 194 to 195 |  |  | 3.33 | 30 |
| COCCc1nc2c(N)nc3cccnc3c2n1CC(C)(C)O [Analog 2, 1-[4-amino-2-(2-methoxyethyl)-1H-imidazo[4,5-c][1,5]naphthyridin-1-yl]-2-methylpropan-2-ol, reference compound] | 0.04 | 0.37 |  |  |  | 0.04 | 0.37 |
| Cc1nc2c(N)nc3cccnc3c2n1CC(C)(C)F [Analog 8, 1-(2-fluoro-2-methylpropyl)-2-methyl-1H-imidazo[4,5-c][1,5]naphthyridin-4-amine, reference compound] | 0.37 | 10 |  |  |  |  |  |
| COCCc1nc2c(N)nc3cccnc3c2n1CC(C)(C)O (as salt: hydrobromid) [Analog 2, 1-[4-amino-2-(2-methoxyethyl)-1H-imidazo[4,5-c][1,5]naphthyridin-1-yl]-2-methylpropan-2-ol] |  |  | 234 to 235 |  |  |  |  |
| CCOCc1nc2c(N)nc3cccnc3c2n1CC(C)(C)NC(=O)C1CCCCC1 [Analog 6, N-[2-(4-amino-2-ethoxymethyl-1H-imidazo[4,5-c][1,5]naphthyridin-1-yl)-1,1-dimethylethyl]cyclohexanecarboxamide] | 0.014 | 0.014 | 210 to 211 |  |  |  |  |
| CS(=O)(=O)NCCn1c(CCO)nc2c(N)nc3cccnc3c21 [Example 5, N-{2-[4-Amino-2-(2-hydroxyethyl)-1H-imidazo[4,5-c][1,5]naphthyridin-1-yl]ethyl}methanesulfonamide] | 30 | > 30 | 136 to 138 |  | * (Below the experimental background of 40 pg/mL) |  |  |
| CCc1nc2c(N)nc3cccnc3c2n1CC(C)(C)O [Analog 4, 1-(4-amino-2-ethyl-1H-imidazo[4,5-c][1,5]naphthyridin-1-yl)-2-methylpropan-2-ol, reference compound] | 0.37 | 3.33 |  |  |  |  |  |
| CCCc1nc2c(N)nc3cccnc3c2n1CC(C)(C)O [Analog 5, 1-(4-amino-2-propyl-1H-imidazo[4,5-c][1,5]naphthyridin-1-yl)-2-methylpropan-2-ol, reference compound] | 0.12 | 1.11 |  |  |  |  |  |
| CS(=O)(=O)NCCCCn1c(CCO)nc2c(N)nc3cccnc3c21 [Example 3, N-{4-{4-Amino-2-(2-hydroxyethyl)-1H-imidazo[4,5-c][1,5]naphthyridin-1-yl]butyl}methanesulfonamide] | 1.11 | 30 | 194 to 195 |  |  |  |  |
| CCOCc1nc2c(N)nc3cccnc3c2n1CC(C)(C)O [Analog 1, 1-(4-amino-2-ethoxymethyl-1H-imidazo[4,5-c][1,5]naphthyridin-1-yl)-2-methylpropan-2-ol] | 0.12 | 1.11 | 157 to 159 |  |  | 0.12 | 1.11 |
| Cc1nc2c(N)nc3cccnc3c2n1CC(C)(C)O [Analog 3, 1-(4-amino-2-methyl-1H-imidazo[4,5-c][1,5]naphthyridin-1-yl)-2-methylpropan-2-ol, reference compound] | 0.37 | 3.33 |  |  |  |  |  |
| CS(=O)(=O)NCCn1c(CO)nc2c(N)nc3cccnc3c21 [Example 4, N-[2-(4-Amino-2-hydroxymethyl-1H-imidazo[4,5-c][1,5]naphthyridin-1-yl)ethyl]methanesulfonamide] | 10 | > 30 | 239 to 242 |  | * (Below the experimental background of 40 pg/mL) |  |  |
